# Assay results taken from patent US20150191484A1, “NOVEL COMPOUNDS HAVING A TETRACYCLIC IRIDOID SKELTON AND AN ANTI-TRYPANOSOMAL AGENT COMPRISING THE SAME AS AN ACTIVE INGREDIENT” (NATIONAL UNIVERSITY CORPORATION TOKYO MEDICAL AND DENTAL …, priority 2014, published 2015).
# “Also recorded” adds a separate entry of the source.
# Tests used:
# LoVo (colon cancer) = experiment: MTT cytotoxicity assay, LoVo; format: cell-based, human; conditions: IC50 against LoVo / IC50 against T. brucei
# Protocol: (§1) The cytotoxic activity of natural products against mammalian cells is an important point in the search for active compounds with biological activity. […] In order to confirm the selective and potent anti-trypanosomal activity of ML-2-2 and ML-2-3, we examined their cytotoxicity in a panel of human cell lines including two human fibroblastic and 8 human cancer-derived cell lines. Cells were seeded in 96-well microplates and incubated with ML-2-2 and ML-2-3 for 48 h at 37° C. in a 5% CO2 humidified incubator. The viabilities of cells were determined with the MTT (3-(4,5-dimethylthiazol-2-yl)-2-5-diphenyltetrazolium bromide) assay. The selectivity index (SI) was determined using the following equation: IC50 against human cells/IC50 against T. brucei. The IC50 values of ML-2-3 were higher than those of ML-2-2 in all the cell lines examined. […] The SI of ML-2-2 indicates values below 1.00 in most cell lines. On the other hand, SI values of ML-2-3 were much higher than those of ML-2-2 in all tested cell lines.
# [1] = MTT cytotoxicity assay, LoVo; format: cell-based, human; conditions: human, LoVo colon cancer cells; LoVo colon cancer, 48 h, MTT
# Protocol: as §1
# [2] = system: GUTat 3.1 strain of the bloodstream forms of T. b. brucei parasites; experiment: Alamar Blue assay (trypanocidal activity); format: cell-based, Trypanosoma brucei brucei
# Protocol: (§2) The GUTat 3.1 strain of the bloodstream forms of T. b. brucei parasites was used for this study. Parasites were cultured in vitro according to the conditions established by Yabu et al, 1998.
# (§3) Parasites were used when they reached a confluent concentration of 1×10^6 parasites/ml. Estimation of parasitemia was done with the Neubauer's counting chamber. Parasites were diluted to a concentration of 3×10^5 parasites/ml with HMI-9 medium and used for the various experiments.
# The Alamar Blue assay was carried out in a 96-well plate. About 1.5×10^4 Parasites were seeded with varied concentrations of the Morinda lucida crude extract, ranging from as low as 0.78 μg/ml to as high as 200 μg/ml, in a ratio of 1:1 in 100 μl volume per well. Berberine, a compound known as anti-trypanocidal agent, was used as a positive control. […] The parasites were incubated with the plant extracts for 24 hours at 37° C. and under 5% CO2. After 24 hours, 10% Alamar Blue dye was added to each well and re-incubated for another 24 hours under the same conditions but in darkness. After a total of 48 hours, the plate was read for absorbance at 540 nm using the TECAN Sunrise Wako Spectrophotometer. An Absorbance-concentration (extract) curve was drawn and the IC50 value of the plant extract was extrapolated. Alamar Blue assay was also performed on the fractions and compounds purified from Morinda Lucida to determine their IC50 values. The IC50 values obtained were compared with that of the positive control and trypanocidal activity determined.
# Trypanosoma cells [3] = experiment: Multi-caspase apoptosis assay (FACS); format: cell-based, Trypanosoma brucei brucei; conditions: 5 μM
# Protocol: as §2, §3
# This assay was performed to investigate multi-caspase signals as markers of apoptosis. Seeding and incubation of parasites were as for the other experiments. After 24 hours of incubation, 10% Caspase Reagent Working Solution was added to each well. The plate was incubated for 1 h at 37° C. under 5% CO2 in air. The plate was washed twice with 1× apoptosis wash buffer, centrifuged for 5-7 min and the supernatant aspirated off. Two hundred microlitres (200 μl) working solution of Caspase 7-AAD was added to each well and mixed thoroughly to re-suspend parasites. The plate was incubated for 10 min at room temperature and subjected to FACS analysis using, the Millipore guava easyCyte 5HT FACS machine for the sorting and estimation of apoptotic parasites according to the manufacturer's instructions.
# [4] = MTT cytotoxicity assay, THP-1; format: cell-based, human; conditions: human, THP-1 leukemia cells; THP-1 leukemia, 48 h, MTT
# Protocol: as §1
# THP-1 (leukemia) = experiment: MTT cytotoxicity assay, THP-1; format: cell-based, human; conditions: IC50 against THP-1 / IC50 against T. brucei
# Protocol: as §1
# [5] = system: HF-19 (normal fibroblast); experiment: MTT cytotoxicity assay, HF-19; format: cell-based, human
# Protocol: as §1
# [6] = MTT cytotoxicity assay, HF-19; format: cell-based, human; conditions: human, HF-19 normal fibroblast cells; HF-19 normal fibroblast, 48 h, MTT
# Protocol: as §1
# [7] = MTT cytotoxicity assay, KATOIII; format: cell-based, human; conditions: human, KATOIII stomach cancer cells; KATOIII stomach cancer, 48 h, MTT
# Protocol: as §1
# KATOIII (stomach cancer) = experiment: MTT cytotoxicity assay, KATOIII; format: cell-based, human; conditions: IC50 against KATOIII / IC50 against T. brucei
# Protocol: as §1
# Trypanosoma cells [8] = experiment: Nexin apoptosis assay (FACS); format: cell-based, Trypanosoma brucei brucei
# Protocol: as §2, §3
# This assay was performed to detect both Phosphatidylserine (PS) signal and fracture of nuclear membraneas markers of apoptosis. Seeding and incubation of parasites with plant materials (extracts, fractions and compounds) were done under the same conditions in Alamar Blue assay. […] The contents of the wells were then subjected to FACS analysis using, the Millipore guava easyCyte 5HT FACS machine for the sorting and estimation of apoptotic parasites according to the manufacturer's instructions.
# Trypanosoma cells [9] = experiment: Cell cycle assay (FACS); format: cell-based, Trypanosoma brucei brucei
# Protocol: as §2, §3
# This assay was performed to investigate any abnormal change in the parasites' cell cycle which may be caused by extracts/compounds with trypanocidal effect. […] The parasites were collected and transferred into 15 ml centrifuge tubes and centrifuged at 1700 rpm for 10 min, after which the supernatant was discarded. The pelleted parasites were re-suspended in 5 ml PBS solution and vortexed to form a suspension. The parasite suspension was centrifuged at 1700 rpm for 10 min and the supernatant discarded. The pelleted parasites were re-suspended in 1.5 ml of PBS and vortexed thoroughly before adding 3.5 ml absolute EtOH gradually to a final volume of 5 ml 70% EtOH. The parasites were then fixed at −20° C. for 1 h. The cell suspension was then centrifuged at 1700 rpm for 10 min and the supernatant discarded. Pelleted parasites were re-suspended in 200 μl of Guava Cell Cycle reagent, which has Propidium Iodide as its main constituent and incubated at room temperature for 30 min. The solution was transferred to wells of 96-well plate. The well contents were then subjected to FACS analysis using the Millipore guava easyCyte 5HT FACS machine, for the sorting of parasites according to the manufacturer's instructions.
smiles,measurement,setting,value
"COc1cc(/C=C2/C(=O)O[C@]34C=C[C@@H]5C(C(=O)O)=CO[C@H](O[C@@H]23)[C@@H]54)ccc1O [ML-2-3, (3aS,4aR,4a^1S,7aS,9aS,3E)-3-(4-hydroxy-3-methoxybenzylidene)-2-oxo-2,3,3a,4a,4a^1,7a-hexahydro-1,4,5-trioxadicyclopenta[a,hi]indene-7-carboxylic acid]",SI (selectivity index),LoVo (colon cancer),8.10
same,IC50 at 48 h,[1],30.4 µM
same,IC50,"[2]; T. b. brucei, Alamar Blue, 48 h, read-out: IC50 of anti-trypanosomal activity",3.75 µM
same,inhibition of the growth of Trypanosoma brucei brucei (in words),[2]; in vitro,the most potent in vitro activity
same,late-apoptosis cells,Trypanosoma cells [3]; control cells 0.40%,4.2%
same,mid-apoptosis cells,Trypanosoma cells [3]; control cells 1.05%,7%
same,IC50 at 48 h,[4],15.4 µM
same,SI (selectivity index),THP-1 (leukemia),4.11
same,cytotoxicity (in words),"[5]; HF-19, highest assayed dose",non-toxic at the highest assayed doses
same,SI (selectivity index),[5]; IC50 against HF-19 / IC50 against T. brucei,>13.33
same,IC50 at 48 h,[6],> 50 µM
same,IC50 at 48 h,[7],24.8 µM
same,SI (selectivity index),KATOIII (stomach cancer),6.62
same,proportion of cells at early stage of apoptosis,"Trypanosoma cells [8]; 5 μM, 3 hours incubation",2.5%
same,proportion of cells at early stage of apoptosis,"Trypanosoma cells [8]; 5 μM, 12 hours of incubation",about 10%
same,incubation time at which significant increase in proportion of late stage apoptotic cells was observed,"Trypanosoma cells [8]; 5 μM, time course 0, 3, 6, 9 and 12 hours",around 6 hours
same,induction of apoptosis,"Trypanosoma cells [8]; 6.25 μM, 24-hour incubation",induced strong apoptosis
same,early stage apoptotic cells,"Trypanosoma cells [8]; 6.25 μM, 24-hour incubation, negative control 0.2%",7.8%
same,late stages apoptotic cells,"Trypanosoma cells [8]; 6.25 μM, 24-hour incubation, negative control none",4.4%
same,induction of apoptosis in Trypanosoma cells,Trypanosoma cells [8]; same concentration (6 μM),strongly induced apoptosis
same,cells with low DNA content (sub-G1 phase),Trypanosoma cells [9]; 15 μM,a large proportion of cells with low DNA content were detected as sub-G1 phase
same,numbers of cells in the G2 and M phase of cell cycle,"Trypanosoma cells [9]; four times of IC50: 15 μM ML-2-3, 5 μM ML-2-2, 24 hours",significant decrease; also recorded: caused alteration of G2/M phase
